Earlier results on one molecule are cited in US12697345B2, “Microparticles containing stabilized CBD oil, and methods for the production thereof” (priority 2021, dated 2026).

Structures are written as SMILES.

The conditions of data set [1]: aerosolized.
The conditions of data set [2]: 600 mg oral CBD, healthy male volunteers.
For data set [3] the following is noted: estimated.

For `C=C(C)[C@@H]1CCC(C)=CC1c1c(O)cc(CCCCC)cc1O` (stereo partly drawn) [CBD, 2-[(6R)-3-methyl-6-prop-1-en-2-ylcyclohex-2-en-1-yl]-5-pentylbenzene-1,3-diol], the “Time to peak plasma concentrations” value in data set [1] is 5 to 10 min. Besides, in data set [2] (1 h), the “mean±SD whole blood level of CBD at 1 hour” value is recorded as 0.36 (0.64) ng/mL. In data set [2] (2 h), the “mean±SD whole blood level of CBD at 2 hours” value is given as 1.62 (2.98) ng/mL. Also, the “mean±SD whole blood level of CBD at 3 hours” value in data set [2] (3 h) is reported as 3.4 (6.42) ng/mL. Also, the “Bioavailability from oral delivery” value in data set [3] is 6%.
